# Source: patent publication US5593970A, “Heterocyclic anthracycline analogs” (priority 1994, dated 1997)
# Key:
# Assay in all cases: Soft agar colony formation disk diffusion assay
# MCF7/ADR = type: cell-based, human
# Text: (§1) A more elaborate version of this fundamental assay, the soft agar colony formation disk diffusion assay was used. This assay defines the relative activity of one particular drug versus a tumoral cell line type. The effect of the test drug against tumoral cells could be measured by its inhibitory capacity against colony formation after the delivery of the compound, in different concentrations on an filter disk(4). A modified technique of this assay was used in order to investigate the antiproliferative activity of candidate compounds. Tumoral cells from solid tumors and ascitic lines were plated separately in a two layer agar matrix. Cell lines to be tested were suspended in an upper layer of 0.4% Noble agar (Difco#00142-01) in RPMI-1066 (Gibco#3201875) at a yield varying between 10^4 to 2×10^5 cells per 60 mm Petri dish. Plating efficiency was determined for each line in order to achieve an optimal number of colonies per dish. Plates were examined before drug administration to confirm a uniform dispersion of single cells. The bottom layer consisted of 0.8% Noble agar, 0.8% Tryptic Soy Broth (difco#0037001)in CMRL-1066/Fischer's. The bottom layers were used within 2 and 9 days of preparation. Plated dishes (bottom layer of agar, upper layer of cells and administered drug were incubated in humidified atmosphere at 37° C., 5% CO2 for 10-20 days depending upon the time necessary to observe adequate colonies (defined as a cell aggregate of more than 50 cells) both control and drug inhibited. Drugs were administered on a paper filter disk (Whatman No. 1) of 6.5 mm diameter placed on the upper layer at 1/3 distance from the edge of the dish. The anti-clonogenic activity of the compounds was measured as the zone of inhibition from the disk edge to the most proximal colonies. This zone of inhibition was checked on an inverted microscope (40×) and was measured with a micrometer mounted in the eyepiece. The ocular micrometer was calibrated with a stage micrometer set for a particular combination of ocular and objective lenses. […] We made a modification of the initial technique by not plating a solid tumor and a leukemia simultaneously in the same Petri dish. Anti-clonogenic tests performed on leukemia cell line have helped in the discovery of the majority of current clinically used cytostatic drugs. Our tests on solid tumor lines (animal or human) may help define active compounds with solid tumor specificity. […] HUMAN TUMORS. […] LS180 (13) and BE1(14) were obtained from the Oncology Dept. of the Montreal General Hospital. […] Cell lines were routinely passaged twice a week by trypsinization and maintained in 25, or 75-sq. cm Falcon Plastic flasks at 37° C., 5% CO2 in humidified atmosphere. Both compounds were dissolved in DMSO (1 mg/100 ul) and brought to final volume (250 ul) with Millipore deionized sterile water. Further dilutions were made with […] volume of 25 ul of freshly prepared solution was placed on the filter disk and allowed to dry.
# LS180 = type: cell-based, human
# Text: as §1
# MCF7 = type: cell-based, human
# Text: as §1
# HT29 = type: cell-based, human
# Text: as §1, with “This assay defines the relative activity of one particular drug versus a tumoral cell line type.” left out, “Plates were examined before drug administration to confirm a uniform dispersion of single cells.” left out, “dish.” for “dish. Anti-clonogenic tests performed on leukemia cell line have helped in the discovery of the majority of current clinically used cytostatic drugs. Our tests on solid tumor lines (animal or human) may help define active compounds with solid tumor specificity.”
# P388/ADR = type: cell-based, murine
# Text: (§2) A more elaborate version of this fundamental assay, the soft agar colony formation disk diffusion assay was used. This assay defines the relative activity of one particular drug versus a tumoral cell line type. The effect of the test drug against tumoral cells could be measured by its inhibitory capacity against colony formation after the delivery of the compound, in different concentrations on an filter disk(4). A modified technique of this assay was used in order to investigate the antiproliferative activity of candidate compounds. Tumoral cells from solid tumors and ascitic lines were plated separately in a two layer agar matrix. Cell lines to be tested were suspended in an upper layer of 0.4% Noble agar (Difco#00142-01) in RPMI-1066 (Gibco#3201875) at a yield varying between 10^4 to 2×10^5 cells per 60 mm Petri dish. Plating efficiency was determined for each line in order to achieve an optimal number of colonies per dish. Plates were examined before drug administration to confirm a uniform dispersion of single cells. The bottom layer consisted of 0.8% Noble agar, 0.8% Tryptic Soy Broth (difco#0037001)in CMRL-1066/Fischer's. The bottom layers were used within 2 and 9 days of preparation. Plated dishes (bottom layer of agar, upper layer of cells and administered drug were incubated in humidified atmosphere at 37° C., 5% CO2 for 10-20 days depending upon the time necessary to observe adequate colonies (defined as a cell aggregate of more than 50 cells) both control and drug inhibited. Drugs were administered on a paper filter disk (Whatman No. 1) of 6.5 mm diameter placed on the upper layer at 1/3 distance from the edge of the dish. The anti-clonogenic activity of the compounds was measured as the zone of inhibition from the disk edge to the most proximal colonies. This zone of inhibition was checked on an inverted microscope (40×) and was measured with a micrometer mounted in the eyepiece. The ocular micrometer was calibrated with a stage micrometer set for a particular combination of ocular and objective lenses. […] We made a modification of the initial technique by not plating a solid tumor and a leukemia simultaneously in the same Petri dish. Anti-clonogenic tests performed on leukemia cell line have helped in the discovery of the majority of current clinically used cytostatic drugs. Our tests on solid tumor lines (animal or human) may help define active compounds with solid tumor specificity. […] Murine tumors were maintained IN VIVO in order to diminish the selection of subpopulations of cells normally present in the heterogenous IN VIVO tumor. The actual drug sensitivity assay was done IN VITRO. For these experiments cells from freshly excised tumors or from ascitic fluids were maintained in RPMI-1066. Both compounds were dissolved in DMSO (1 mg/100 ul) and brought to final volume (250 ul) with Millipore deionized sterile water. Further dilutions were made with […] volume of 25 ul of freshly prepared solution was placed on the filter disk and allowed to dry.
# P388 = type: cell-based, murine
# Text: as §2
# B16 = type: cell-based, murine
# Text: as §2
# M5076 = type: cell-based, murine
# Text: as §2
# MATB/ADR = type: cell-based, rat
# Text: as §2
# MATB.WT = type: cell-based, rat
# Text: as §2
Compound,zone of inhibition (MCF7/ADR; 10 μg/DISK) [Zone Units],zone of inhibition (MCF7/ADR; 100 μg/DISK) [Zone Units],zone of inhibition (LS180; 10 μg/DISK) [Zone Units],zone of inhibition (LS180; 100 μg/DISK) [Zone Units],zone of inhibition (MCF7; 10 μg/DISK) [Zone Units],zone of inhibition (MCF7; 100 μg/DISK) [Zone Units],zone of inhibition (HT29; 10 μg/DISK) [Zone Units],zone of inhibition (HT29; 100 μg/DISK) [Zone Units],zone of inhibition (P388/ADR; 10 μg/DISK) [Zone Units],zone of inhibition (P388/ADR; 100 μg/DISK) [Zone Units],zone of inhibition (P388; 10 μg/DISK) [Zone Units],zone of inhibition (P388; 100 μg/DISK) [Zone Units],zone of inhibition (B16; 10 μg/DISK) [Zone Units],zone of inhibition (B16; 100 μg/DISK) [Zone Units],zone of inhibition (M5076; 10 μg/DISK) [Zone Units],zone of inhibition (M5076; 100 μg/DISK) [Zone Units],zone of inhibition (MATB/ADR; 10 μg/DISK) [Zone Units],zone of inhibition (MATB/ADR; 100 μg/DISK) [Zone Units],zone of inhibition (MATB.WT; 10 μg/DISK) [Zone Units],zone of inhibition (MATB.WT; 100 μg/DISK) [Zone Units]
"CCOC(=O)C1Cc2c(O)c3c(c(O)c2CS1)C(=O)c1ccccc1C3=O (stereo not shown) [BCH-713, 3-carbethoxy-5,12-dihydroxy-1,2,3,4-tetrahydro-(2-sulfur)naphthacene-6,11-dione]",24.0 ± 8.6,94.5 ± 64.7,0,45.7 ± 21.5,0,0,0,0,0,61.0 ± 0.0,0,45.7 ± 21.5,0,24.4 ± 8.6,0,42.7 ± 8.6,0,0,0,27.4 ± 4.3
"COCOCC(=O)C1CC2=C(CO1)C(=O)c1c(cc3ccccc3c1O)C2=O (stereo not shown) [BCH-714, 3-(2-methoxymethoxy)aceto-11-hydroxy-1,2,3,4-tetrahydro-(2-oxygen)-napthacene-5,12-dione]",0,0,9.0 ± 4.2,42.0 ± 26.0,0,0,0,0,0,0,0,27.0 ± 4.2,0,0,15.5 ± 5.0,55.0 ± 8.4,0,0,0,0
